Laboratory results as given in a melting point compilation (Tetko et al.; mined from patent text by program, amines drawn as free bases though some values may be those of a salt).

Row | SMILES | melting point [°C]
1 | CCN(CC)c1ccc(/C=C/c2cc(/C=C/c3ccc4cc[nH]c4c3)[nH]n2)c(OCCN2CCCCC2)c1 | 102 to 104
2 | CCCN1CC(c2ccc(S(C)(=O)=O)cc2)=C(c2ccc(F)cc2)C1=O | 120 to 121
3 | C#Cc1cn(C2CC(N=[N+]=[N-])C(COC(c3ccccc3)(c3ccccc3)c3ccccc3)O2)c(=O)[nH]c1=O (centres undefined) | 110
4 | Oc1ncnc2c1cnn2C1OC(COCc2ccccc2)C(OCc2ccccc2)C1OCc1ccccc1 (centres undefined) | 204
5 | CCOCc1nc2c(N)nc3cc(Br)cnc3c2n1CCCON=C(C)C | 128 to 130
6 | COC(=O)c1cccc(-c2nc(COc3ccc(CO)cc3)c(C)o2)c1 | 105 to 106
7 | COC(=O)c1c(C(=O)OC)c(-c2ccc(OC)cc2)n2c1Cc1cc(OC)ccc1-2 | 240 to 242
8 | COc1cccc(CN2CCc3cc(OCc4ccccc4)c(OC)cc3C2)c1 | 71 to 72
9 | CCOC(=O)C(Oc1ccc(C(=O)CBr)cc1)C(=O)OCC | 55 to 58
10 | CCCCCC(=O)NC[C@@H]1CN2C(=O)C[C@H]2O1 (racemic) | 56 to 57
11 | CCOC(=O)c1cc(O)c2nc(C)n(C)c2c1 | 272 to 273
12 | CC(C)(C)OC(=O)N1CCN(c2cc(Cl)ccc2N)CC1 | 125 to 127
13 | COc1cccc(C(O)c2cc3ccccc3s2)c1 (centres undefined) | 63 to 65
14 | FC(F)=C(F)CCCCSc1nnc(-c2ccc(C(F)(F)F)cc2)o1 | 40
15 | Cc1ccc(NC(=O)NCc2cccc3c2CN(C2CCC(=O)NC2=O)C3=O)cc1Cl (centres undefined) | > 260
16 | COC(=O)c1ccc(C(=O)C2=C(C)C(=O)c3ccccc3C2=O)cc1 | 162
17 | CC1CCCCC1N(Cc1ccc(C(=O)NC(C)(C)C(=O)O)cc1)S(=O)(=O)c1ccc(Cl)cc1 (centres undefined) | 121 to 122
18 | CC(=O)OCc1[nH]c(C(=O)OCc2ccccc2)c(C)c1C(C)=O | 97 to 100
19 | CCCCCCCCCCCc1ccc(CC(=O)O)cc1 | 83 to 84
20 | C=C(C)C(=O)OCCCc1cc(CCCOC(=O)C(=C)C)c2oc(=O)c(-c3ccc(OC(=O)C(=C)C)cc3)cc2c1 | 49
21 | Cc1ccc(N2Cc3ccccc3P2(=O)c2ccccc2)cc1 (centres undefined) | 197 to 199
22 | Fc1cc(F)c(-c2c(Cl)ncn2-c2ccc(Cl)cc2)c(F)c1 | 102 to 104
23 | CN1C(=O)CC[C@]2(C)c3ccc(-c4ccccc4C#N)cc3CC[C@@H]12 | 54 to 55
24 | Cn1cc(C=CC(=O)NC2CC2)c([N+](=O)[O-])n1 | 183 to 185
25 | COc1ccc(Cn2cnc3c(-c4ccco4)nc(C4CC4)nc32)cc1 | 115 to 116

Row | SMILES | melting point [°C]
26 | O=C(Nc1cc([N+](=O)[O-])ccc1F)C(F)(F)F | 112 to 113
27 | CC(C)(C)c1ccc(C(NC(=O)c2c(F)cccc2Cl)N2CCOCC2)cc1 (centres undefined) | 180 to 181
28 | Oc1nc(-c2ccc(Cl)cc2)nc2c1CCCC2 | 255
29 | COc1cn(-c2ccc(C(F)(F)F)cc2F)nc(-c2ccnn2-c2ccccc2)c1=O | 169 to 171
30 | CC(C)(CCCC(C(O)C(C)(C)C)n1cncn1)c1ccccc1 (centres undefined) | 98 to 99
31 | O=C(O)COc1ccc(OCC(=O)O)c(NC(=O)c2ccc(OCCCCc3ccccc3)cc2)c1 | 211 to 214
32 | O=C(O)c1sc(Cl)nc1C(F)(F)F | 131 to 132
33 | O=C(Nc1cccc(C(F)(F)F)c1)N1CCCCc2cc(O)ccc21 | 172 to 173
34 | O=C(O)COc1ccc(Cn2nnc(-c3cccc(C#CCc4ccc(F)cc4)c3)n2)cc1 | 158 to 160
35 | CC(C)OC(=O)C(=C1SC=CS1)c1ccc(F)cc1 | 86
36 | Cn1ncnc1COc1nn2c(-c3ccccc3)nnc2cc1N1CCOCC1 | 210 to 211
37 | COc1cc2c(cc1OC)C(O)N(CCc1ccccc1)C2=O (centres undefined) | 130
38 | N#Cc1cnc2cc(-c3csc(C=O)c3)ccc2c1Nc1ccc(Cl)cc1Cl | 286 to 288
39 | Cc1ccc(Sc2c(Cl)c(C(=O)O)c(C(O)=NCCO)c(Cl)c2Sc2ccc(C)cc2)cc1 | 211 to 212
40 | CCOC(=O)c1cc(-c2ccc(Cl)cc2)c(Cl)nc1N | 195 to 198
41 | CC(=O)NC1CCN(c2ccc(C#N)c3ccccc23)C1 (centres undefined) | 154 to 155
42 | Oc1cc2c3ccc(O)c(O)c3n(Cc3ccccc3)c2cc1O | 241 to 246
43 | CS(=O)(=O)c1ccccc1-c1ccc(C(=O)N2Cc3ccc(C(=O)NCc4cccnc4)n3Cc3ccccc32)cc1 | 153 to 156
44 | COc1ccc(N(C(=O)CN2C(=O)C(Cc3n[nH]c4ccccc34)(OC)C(=O)N(c3cccnc3)c3ccccc32)C(C)C)cc1 (centres undefined) | 207 to 209
45 | COc1ccc(OC)c(C(=O)c2cc3cc(OC)ccc3o2)c1 | 119 to 121
46 | CN1CCC(c2c[nH]c3ccc(OS(=O)(=O)c4ccc(Cl)cc4)cc23)CC1 | 182 to 184
47 | CN1CCN(S(=O)(=O)c2cccc(NC(=O)c3cnn4c(C(F)F)cc(-c5ccc(Cl)cc5)nc34)c2)CC1 | 147
48 | O=C(O)CC1c2ccccc2CCc2cc(Cl)ccc21 (centres undefined) | 142 to 146
49 | CSCC[C@@H](NC(=O)OC(C)(C)C)C(=O)NCC(=O)O | 124 to 126
